For assay [1], the system named is Staphylococcus epidermidis. The assay is described as follows: microbicidal activity of TauBr solution, incubation with bacteria then colony count. The assay is classed as cell-based. As to conditions: 0.5 h, 30 minutes incubation at room temperature, range tested 1-1000 μM, read-out: inhibitory concentration (MIC). As to the method: (§1) For research purposes, two bacterial strains commonly found on the human skin were chosen: Propionibacterium acnes (causing acne) and Staphylococcus epidermides (being a part of physiological flora of the skin). Selected microorganisms were lyophilized and kept at room temperature. To prepare strain cultures for immune research the lyophilisate was dissolved in 0.5 ml of 0.9% NaCl solution. The mixture was stirred and seeded on a growth medium. Incubation was conducted in anaerobic conditions at 37° C. for 48-72 hrs. A suspension of bacteria at a concentration of 5×10^9 CFU/ml was then prepared.
(§2) In order to assess the microbicidal activity of the TauBr solution, the Proponibacterium acnes and the Staphylococcus epidermides bacteria were incubated in closed tubes with TauBr solution. The range of concentrations tested was 1-1000 μM. The incubation was conducted at room temperature for 30 minutes. When this process was completed, bacteria were seeded onto a growth medium. After an appropriate period of time the number of developed colonies were counted. Next, estimation of the susceptibility of the Proponibacterium acnes and Staphylococcus epidermides bacteria to the agent tested [TauBr] was determined.

The test system of another assay is Propionibacterium acnes. The assay is described as above. Type of assay: cell-based. The note with it: Cutibacterium acnes, 0.5 h, 30 minutes incubation at room temperature, range tested 1-1000 μM, read-out: inhibitory concentration (MIC). How it is done: as §1, §2
The next assay concerns bacteria tested. The assay is described as follows: bactericidal activity of TauBr compared with TauCl at pH above 7. Type of assay: cell-based.
The test system of assay [2] is bacteria on the skin. As to the kind of experiment: imprinting method with Rodac plates on dorsal skin of volunteers, solutions on gauze pads. The assay is classed as in vivo, human. As to conditions: 30 minutes. The text has this: In order to conduct further tests to ascertain the antibacterial activity of the formulation containing taurine bromamine and prepared by the method described above, the imprinting method was chosen with use of Rodac plates with an area of 25 cm^2. For the purposes of study a Scheadler Agar Base medium produced by the firm Dico, catalogue number 212189, was used with addition of 5% ram blood. The medium was poured steadily onto the Rodac plates in aseptic conditions until a convex meniscus appeared. Before being applied, the medium was kept in enclosed conditions within a fridge at a temperature of ca. +4° C. and was used in a time not exceeding 7 days from the date of its preparation.
Tests for the antibacterial activity of taurine bromamine were conducted by performing 5 imprints of the dorsal skin on time at each of the patients examined. The skin area, on which the tests were to be performed, was determined in advance and marked with the numbers 1-5. […]
At the site marked 1—a gauze pad saturated with 0.9% inj. solution of NaCl (Polfa Lublin), which was a control substance without antibacterial activity was applied to the skin. […] Wherever possible, all the cultivated colonies of relatively aerobic and anaerobic bacteria were counted, to provide a figure for the concentration per cm^2 of the skin. […]

For assay [3], the system named is bacteria on the skin. The assay is described as follows: imprinting method on skin of volunteers, gel, cream and powder preparations. Type of assay: in vivo, human. The note with it: above 5 mM taurine bromamine; for example Staphylococcus epidermides. As to the method: Further studies of the antibacterial activity of taurine bromamine were conducted using a gel, a cream and a powder. In these tests, applications with a semisolid consistency and plastic features were made, called hereinafter, pharmaceutical or cosmetic preparations or compositions, particularly a taurine bromamine solution in an ethyl-cellulose gel with pH 5-pH 7, a cetomacrogol cream with pH 5-pH 7 and a powder suspension in a taurine bromamine solution.
The powder suspension in taurine bromamine solution was prepared on a base of liquid powder changing the proportions of the components by weight. The suspension consisted of, by weight: 14.0-60.0% of 10 mM Taurine bromamine solution, 10.0-24.0% of talc, 14.0-40.0% of glycerol, 5.0-30.0% of distilled water and 0.5-2.0% of menthol. The constituents of the suspension were stirred thoroughly until an homogenous dispersion of the solid phase was obtained. […]
The preparations were left on the skin area for 30 minutes and then the plates were pressed down so that the site exposed to the activity of the various substances was imprinted centrally on the plate. […] Wherever it was possible, all cultivated colonies of relatively aerobic bacteria and anaerobic bacteria were counted, giving their occurrence per 1 cm^2 of the skin. […]

The source of these data is patent US20040214891A1, “Method for inhibiting pathogenic bacteria and fungi growth and microbicidal composition” (priority 2003, published 2004).

Structures are written as SMILES. Where only a bound is given, the exact number is not on record here.

Turning to `O=S(=O)(O)CCNBr` [TauBr, N-bromo taurine], the MIC in assay [1] was greater than 125 µM; with Propionibacterium acnes, less than 32 µM. The “selective bactericidal properties (variable susceptibility of strains)” value in the assay on bacteria tested is given as “Variable susceptibility of the strains”. The “bactericidal activity relative to TauCl” value in the assay with bacteria tested (especially at pH above 7) is reported as “much stronger than TauCl”. This compound had a bacteria destroyed with bacteria tested (pH above 7) of 99%. For the same compound, in the assay on bacteria on the skin [2] (5 mM solution in buffer pH 7, decrease from uncountable level of ca 10^4 CFU/cm^2), the “bacterial concentration on skin after treatment” value was 10^1-10^2 CFU/cm^2. Besides, the “number of bacteria on the skin area” value with bacteria on the skin [2] (4-7 mM solution in buffer pH 5-pH 7, all patients) is recorded as “considerable diminution”. For the same compound, in the assay on bacteria on the skin [3], the “effect on bacterial flora of normal skin” value is recorded as “all the bacterial flora is destroyed”.

With `O=S(=O)(O)CCNCl` [TauCl, N-chloro taurine, reference compound], the “selective bactericidal properties (variable susceptibility of strains)” value with bacteria tested is “no such selective bactericidal properties”. Besides, the bactericidal properties entry in the assay on bacteria tested (pH above 7, subcytotoxic concentrations for mammalian cells) was “no bactericidal properties”.
